Test results from patent US20030027722A1, “Influencing the activity of plant growth regulators” (priority 1998, published 2003).

Legend:
apple stalk slices = assay: rooting regeneration on apple stalk slices with elicitors; type: cell-based; conditions: elicitor 10^−10 M; apple stalk slices
Description: The effect of the elicitors on rooting regeneration on apple stalk slices was studied. The stalk slices were incubated on medium with elicitors in combination with a sub-optimal auxin concentration (1 μM indolebutyric acid or 1 μM indoleacetic acid) which were added for 1 or 3 days to the plant tissue for testing. The increase was measured in the number of regenerated roots compared to the auxin control.

saintpaulia = assay: shoot regeneration in saintpaulia; type: cell-based; conditions: elicitor 10^−10 M
Description: (§1) The elicitor uridine was tested on shoot regeneration in saintpaulia, lateral root formation in pea, cell division in tobacco and root induction in larkspur and apple.

pea = assay: lateral root formation in pea; type: in vivo; conditions: elicitor 10^−8 to 10^−16 M
Description: as §1

tobacco = assay: cell division in tobacco; type: cell-based; conditions: elicitor 10^−10 M
Description: as §1

larkspur = assay: root induction in larkspur; type: in vivo; conditions: root formation larkspur, elicitor 10^−10 M
Description: as §1

O=c1ccn([C@@H]2O[C@H](CO)[C@@H](O)[C@H]2O)c(=O)[nH]1 [uridine]
increased regeneration in relation to control (auxin alone) (apple stalk slices): 75% | increased regeneration in relation to control (auxin alone) (saintpaulia): 100% | increased regeneration in relation to control (auxin alone) (pea): 100% | increased regeneration in relation to control (auxin alone) (tobacco): 75% | increased regeneration in relation to control (auxin alone) (larkspur): 50%
